Results from US11980633B2, “Method for treating cancer using a combination of DNA-damaging agents and DNA-PK inhibitors” (Vertex Pharmaceuticals Incorporated, priority 2016, dated 2024).

System: primary human tumors (esophageal, gastric)
Assay: TCA: Compound B-1 with carboplatin, primary tumors
Type: cell-based
Experimental: In both studies, cell viability was assessed after 6 days in culture. Statistical analysis of the combination matrix was performed to assess whether synergy, additivity, or antagonism of the combination treatments were observed.
Materials: Primary patient samples (See Tables 16 and 17, below) were excised from mice when they reached 500 mg to 1000 mg in size and processed immediately, or after overnight shipment. Tumors were serially passaged by subcutaneous implantation of 50 mg to 150 mg fragments into the flanks of immunocompromised (nude) mice. Tumors were used within the first 5 or 7 passages.
Tumor Chemosensitivity Assay (TCA): Primary tumor samples were grown and serially passaged in immunocompromised mice. Tumors were mechanically dissociated into small fragments (1 mm to 2 mm) with scalpels in phosphate buffered saline (PBS or RPMI) and centrifuged at 200×g for 5 minutes at room temperature in 50 mL centrifuge tubes. Samples were resuspended in 10 mL of cell dissociation reagent and enzymatically digested with mechanical agitation for 1 to 3 hours at 37° C., 5% CO2 to a single cell suspension. Ten mL of complete RPMI-1640 media was added to the cell mixture and pipetted up and down 4 to 5 times. The mixture was then passed through a 70 μm or 100 μm mesh strainer to remove undigested tumor. The filtrate was then centrifuged 200×g for 5 minutes at room temperature and resuspended in 20 mL complete RPMI-1640. This cell suspension was slowly layered onto 20 mL of room temperature Histopaque and centrifuged at 400×g for 15 minutes at room temperature without a brake. The interface was transferred to a new 50 mL centrifuge tube and 15 mL of complete RPMI-1640 was added. This suspension was centrifuged at 200×g at room temperature, and the resulting pellet was resuspended in 10 mL of complete PC-1 media, except for pancreatic tumors in which case Pancreatic Medium was used. Cells were diluted in Trypan blue, and viable cells that excluded the dye were counted. Only the larger, tumor cells were included in the cell count. Cells were diluted in complete PC-1 or Pancreatic media, as appropriate for the cells, and were plated at 15,000 to 20,000 cells per well in 100-135 μL in ultra-low attachment U-bottom plates.
Compound Addition: For these studies, a 10 mM stock of the DNA-PK inhibitor (Compound B-1 or Compound B-2) was made in DMSO and used to add to cells from most tumors with HP D300 Digital Dispenser (Tecan US, Morrisville, NC, USA), or diluted into the appropriate media (PC-1 or pancreatic media) as a 5-10× stock and added to cells (OVX001 and ENX001, 005). PC-1, pancreatic media, and chemotherapeutics were also added so that final well volume was 150 μL. Doxorubicin was made as DMSO stock of 1 or 10 mM and added to cells for most tumors with HP D300 Digital Dispenser, or diluted into PC-1 as 5-10× stock and added to cells (OVX001 and ENX001, 005). Cisplatin (cis-diammine platinum(II), dichloride) was prepared fresh to 10 mM in warm (60° C.) distilled water and diluted in PC-1 as a 5-10× stock. […] Different starting concentrations, dose ranges, and number of doses were used for each experiment based on the response data available at the time.
For bleomycin experiments, combinations with Compound B-1 at all concentrations were run in triplicate. A 6×3 matrix was designed on one plate, consisting of a 2-point concentration range of 0.73 μM and 2.2 μM Compound B-1 plus no treatment control, in 3 columns each of 6 wells. Bleomycin (plus ‘no treatment’ control) was added to 9 wells in rows of this plate. Similar 6×3 matrices were set up for additional agents with different starting concentrations for compound dilutions. For cisplatin experiments the starting concentration was 30 μM which was diluted 1:3. […] For doxorubicin hydrochloride experiments the starting concentration was 5 μM doxorubicin which was diluted 1:3. For gemcitabine experiments the starting concentration was 5 μM gemcitabine which was diluted 1:3. […]

CNC(=O)c1ccnc2c([C@H](C)CNc3cc(-c4cnc(C)nc4)ncn3)cccc12 [Compound B-1]
tumors that showed synergy or additivity (5 tumors): 100% | Average Bliss score (tumor ESX005, Esophageal): 3 | Synergy/Additivity/Antagonism (tumor ESX005, Esophageal): Additive (Values between 5 and −5 are considered additive) | Average Bliss score (tumor ESX008, Esophageal): 5 | Synergy/Additivity/Antagonism (tumor ESX008, Esophageal): Synergistic (greater than 5 are considered synergistic) | Average Bliss score (tumor GAX001, Gastric): 2 | Synergy/Additivity/Antagonism (tumor GAX001, Gastric): Additive (Values between 5 and −5 are considered additive) | Average Bliss score (tumor GAX007, Gastric): 4 | Synergy/Additivity/Antagonism (tumor GAX007, Gastric): Additive (Values between 5 and −5 are considered additive) | Average Bliss score (tumor GAX027, Gastric): 4 | Synergy/Additivity/Antagonism (tumor GAX027, Gastric): Additive (Values between 5 and −5 are considered additive)
